Legend:
potassium arsenate = compound: O=[As]([O-])(O)O.[K+] [potassium arsenate]; experiment: thermal stability z-score vs DMSO; higher = more thermally stabilized by treatment; details: HeLa; arsenate concentration 1 mM
Experimental: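 Cellular thermal proteome profiling in HeLa cells treated with 1 mM arsenate for 1 h (DMSO pretreatment), heated to ten temperatures (37-66.3 °C). Soluble protein was quantified by TMT mass spectrometry relative to DMSO controls; the thermal stability score was transformed to a z-score; mean of n = 3 experiments.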

lipoamide = compound: NC(=O)CCCCC1CCSS1 [lipoamide]; experiment: as above; details: HeLa, lipoamide concentration 100 µM
Experimental: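 Cellular thermal proteome profiling in HeLa cells. Cells were treated with 100 µM lipoamide for 1 h, with or without 1 mM arsenate for a further 1 h, then heated to ten temperatures (37-66.3 °C), and soluble protein was quantified by TMT mass spectrometry relative to 0.1% DMSO controls. The thermal stability score (sum of log2 fold changes minus the abundance score) was transformed to a z-score; mean of n = 3 experiments.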

[1] = arsenate co-treatment: 1 mM arsenate 1 h
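Further: each temperature applied for 3 min, abundance score taken as mean log2 fold change at the two lowest temperatures, z-score obtained by mean subtraction and division by SD.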

UniProt Q9BUV8, sequence (Q9BUV8 whole entry): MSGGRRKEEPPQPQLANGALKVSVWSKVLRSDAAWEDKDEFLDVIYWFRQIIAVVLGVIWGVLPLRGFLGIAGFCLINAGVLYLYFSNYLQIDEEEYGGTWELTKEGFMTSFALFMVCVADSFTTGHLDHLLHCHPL
UniProt Q9NWS8, sequence (Q9NWS8 whole entry): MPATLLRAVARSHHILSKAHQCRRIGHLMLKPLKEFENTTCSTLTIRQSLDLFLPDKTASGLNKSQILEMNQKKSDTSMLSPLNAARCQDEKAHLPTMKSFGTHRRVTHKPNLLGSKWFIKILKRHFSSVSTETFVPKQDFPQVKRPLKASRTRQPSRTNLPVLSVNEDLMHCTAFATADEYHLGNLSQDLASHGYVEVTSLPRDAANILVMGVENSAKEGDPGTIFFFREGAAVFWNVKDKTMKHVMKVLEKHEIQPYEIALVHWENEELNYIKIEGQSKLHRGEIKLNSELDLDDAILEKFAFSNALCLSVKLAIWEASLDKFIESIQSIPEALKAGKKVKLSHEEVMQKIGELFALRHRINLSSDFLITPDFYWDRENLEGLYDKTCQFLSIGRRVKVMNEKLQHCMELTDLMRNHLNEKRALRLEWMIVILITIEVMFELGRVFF
UniProt O14828, sequence (O14828 whole entry): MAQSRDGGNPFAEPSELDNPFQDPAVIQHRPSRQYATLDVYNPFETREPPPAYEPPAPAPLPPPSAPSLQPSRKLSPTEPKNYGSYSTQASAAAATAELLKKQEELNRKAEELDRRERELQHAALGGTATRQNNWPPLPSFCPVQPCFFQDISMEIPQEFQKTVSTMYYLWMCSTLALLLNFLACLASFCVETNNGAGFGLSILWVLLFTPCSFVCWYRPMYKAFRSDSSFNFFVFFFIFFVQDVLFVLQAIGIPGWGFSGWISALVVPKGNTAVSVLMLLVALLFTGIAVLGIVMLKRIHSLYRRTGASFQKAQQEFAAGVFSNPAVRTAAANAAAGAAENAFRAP
UniProt P25445, sequence (P25445 whole entry): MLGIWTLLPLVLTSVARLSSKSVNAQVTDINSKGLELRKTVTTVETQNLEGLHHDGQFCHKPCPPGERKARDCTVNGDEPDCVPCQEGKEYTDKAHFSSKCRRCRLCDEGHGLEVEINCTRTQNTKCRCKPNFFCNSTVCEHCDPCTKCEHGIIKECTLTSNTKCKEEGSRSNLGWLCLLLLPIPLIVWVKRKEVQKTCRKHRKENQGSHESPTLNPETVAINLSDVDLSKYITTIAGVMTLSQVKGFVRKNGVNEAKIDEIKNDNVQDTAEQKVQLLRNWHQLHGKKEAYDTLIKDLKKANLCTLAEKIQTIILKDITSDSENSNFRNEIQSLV
UniProt P63146, sequence (P63146 whole entry): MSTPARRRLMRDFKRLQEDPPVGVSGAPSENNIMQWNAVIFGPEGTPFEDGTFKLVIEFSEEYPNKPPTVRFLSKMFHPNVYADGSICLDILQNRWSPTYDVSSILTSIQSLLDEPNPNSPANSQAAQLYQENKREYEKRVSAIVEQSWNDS
UniProt P22314, sequence (P22314 whole entry): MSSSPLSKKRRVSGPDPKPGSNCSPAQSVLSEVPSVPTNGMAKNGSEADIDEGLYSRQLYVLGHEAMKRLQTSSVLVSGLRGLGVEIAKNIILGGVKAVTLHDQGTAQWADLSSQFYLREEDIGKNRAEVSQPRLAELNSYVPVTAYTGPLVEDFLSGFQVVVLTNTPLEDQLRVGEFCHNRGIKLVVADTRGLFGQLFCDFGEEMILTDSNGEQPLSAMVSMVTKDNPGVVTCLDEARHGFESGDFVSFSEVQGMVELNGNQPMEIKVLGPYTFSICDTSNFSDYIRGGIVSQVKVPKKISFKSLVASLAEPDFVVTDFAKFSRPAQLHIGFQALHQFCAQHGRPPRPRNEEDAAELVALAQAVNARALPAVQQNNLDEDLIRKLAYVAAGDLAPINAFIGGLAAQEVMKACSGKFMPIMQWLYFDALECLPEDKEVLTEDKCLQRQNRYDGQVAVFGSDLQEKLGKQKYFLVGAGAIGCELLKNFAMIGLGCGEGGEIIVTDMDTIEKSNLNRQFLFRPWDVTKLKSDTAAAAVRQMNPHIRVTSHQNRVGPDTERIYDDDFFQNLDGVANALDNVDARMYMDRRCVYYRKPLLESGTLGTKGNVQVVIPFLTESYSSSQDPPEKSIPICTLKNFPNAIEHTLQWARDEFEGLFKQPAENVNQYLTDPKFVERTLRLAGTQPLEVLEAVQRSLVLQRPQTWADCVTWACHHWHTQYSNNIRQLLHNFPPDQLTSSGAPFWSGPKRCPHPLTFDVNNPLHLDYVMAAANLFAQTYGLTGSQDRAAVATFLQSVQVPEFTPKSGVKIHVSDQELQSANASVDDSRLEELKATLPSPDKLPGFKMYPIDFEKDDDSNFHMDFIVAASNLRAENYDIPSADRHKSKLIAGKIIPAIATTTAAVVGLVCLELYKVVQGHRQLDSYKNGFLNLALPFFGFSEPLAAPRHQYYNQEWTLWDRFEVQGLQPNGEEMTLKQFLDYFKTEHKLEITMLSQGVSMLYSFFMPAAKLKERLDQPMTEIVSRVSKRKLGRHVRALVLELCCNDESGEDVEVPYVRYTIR
UniProt Q9H857, sequence (Q9H857 whole entry): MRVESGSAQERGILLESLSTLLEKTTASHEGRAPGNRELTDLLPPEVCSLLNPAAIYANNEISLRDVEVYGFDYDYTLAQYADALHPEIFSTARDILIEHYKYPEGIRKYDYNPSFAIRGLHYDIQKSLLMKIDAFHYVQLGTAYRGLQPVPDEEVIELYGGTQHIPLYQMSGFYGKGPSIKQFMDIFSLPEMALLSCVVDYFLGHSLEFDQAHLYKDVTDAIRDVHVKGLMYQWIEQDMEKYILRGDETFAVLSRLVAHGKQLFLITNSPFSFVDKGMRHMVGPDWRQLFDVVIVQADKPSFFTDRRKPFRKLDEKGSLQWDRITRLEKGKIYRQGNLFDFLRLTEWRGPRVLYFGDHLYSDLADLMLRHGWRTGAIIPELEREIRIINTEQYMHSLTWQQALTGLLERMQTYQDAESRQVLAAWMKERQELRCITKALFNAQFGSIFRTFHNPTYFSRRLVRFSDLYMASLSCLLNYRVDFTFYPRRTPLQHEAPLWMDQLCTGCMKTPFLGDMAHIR
UniProt Q9NRX1, sequence (Q9NRX1 whole entry): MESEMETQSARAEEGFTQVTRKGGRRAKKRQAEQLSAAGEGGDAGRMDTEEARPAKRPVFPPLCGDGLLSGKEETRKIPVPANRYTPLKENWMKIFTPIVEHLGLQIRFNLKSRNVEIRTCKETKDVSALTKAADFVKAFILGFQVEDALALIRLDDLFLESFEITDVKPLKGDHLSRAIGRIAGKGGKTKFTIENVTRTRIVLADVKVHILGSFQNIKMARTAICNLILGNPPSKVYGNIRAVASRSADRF
UniProt Q9UI95, sequence (Q9UI95 whole entry): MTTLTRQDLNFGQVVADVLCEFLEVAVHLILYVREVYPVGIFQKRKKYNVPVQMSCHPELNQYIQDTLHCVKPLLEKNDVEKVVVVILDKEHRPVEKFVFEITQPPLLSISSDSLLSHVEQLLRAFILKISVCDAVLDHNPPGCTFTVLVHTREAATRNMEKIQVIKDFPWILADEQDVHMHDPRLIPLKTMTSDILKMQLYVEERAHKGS
UniProt Q8WUI4, sequence (Q8WUI4 whole entry): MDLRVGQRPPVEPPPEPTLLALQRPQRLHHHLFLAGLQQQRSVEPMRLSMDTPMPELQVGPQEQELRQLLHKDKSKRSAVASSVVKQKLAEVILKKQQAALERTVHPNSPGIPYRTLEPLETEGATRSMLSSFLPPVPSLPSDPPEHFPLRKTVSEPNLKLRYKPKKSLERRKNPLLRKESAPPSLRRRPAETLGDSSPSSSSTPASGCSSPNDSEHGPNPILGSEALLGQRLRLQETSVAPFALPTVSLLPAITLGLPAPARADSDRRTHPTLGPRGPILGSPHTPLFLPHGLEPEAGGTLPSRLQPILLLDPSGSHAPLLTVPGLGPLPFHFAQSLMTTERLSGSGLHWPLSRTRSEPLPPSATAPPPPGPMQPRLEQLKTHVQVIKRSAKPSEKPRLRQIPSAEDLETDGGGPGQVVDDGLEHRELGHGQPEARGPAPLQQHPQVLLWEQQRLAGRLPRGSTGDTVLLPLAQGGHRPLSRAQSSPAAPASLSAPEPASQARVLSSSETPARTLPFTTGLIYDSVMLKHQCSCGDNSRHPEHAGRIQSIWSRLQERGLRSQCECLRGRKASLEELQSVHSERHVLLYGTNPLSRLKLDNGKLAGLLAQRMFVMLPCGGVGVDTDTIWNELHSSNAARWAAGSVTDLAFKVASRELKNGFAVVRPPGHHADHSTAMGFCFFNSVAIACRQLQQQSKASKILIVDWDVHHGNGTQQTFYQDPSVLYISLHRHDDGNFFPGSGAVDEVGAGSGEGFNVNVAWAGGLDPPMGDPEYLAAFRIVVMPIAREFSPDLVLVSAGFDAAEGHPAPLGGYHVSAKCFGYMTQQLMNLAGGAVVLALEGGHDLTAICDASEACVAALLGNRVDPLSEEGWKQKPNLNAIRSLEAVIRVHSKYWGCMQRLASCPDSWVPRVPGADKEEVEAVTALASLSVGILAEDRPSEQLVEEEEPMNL
UniProt Q9Y314, sequence (Q9Y314 whole entry): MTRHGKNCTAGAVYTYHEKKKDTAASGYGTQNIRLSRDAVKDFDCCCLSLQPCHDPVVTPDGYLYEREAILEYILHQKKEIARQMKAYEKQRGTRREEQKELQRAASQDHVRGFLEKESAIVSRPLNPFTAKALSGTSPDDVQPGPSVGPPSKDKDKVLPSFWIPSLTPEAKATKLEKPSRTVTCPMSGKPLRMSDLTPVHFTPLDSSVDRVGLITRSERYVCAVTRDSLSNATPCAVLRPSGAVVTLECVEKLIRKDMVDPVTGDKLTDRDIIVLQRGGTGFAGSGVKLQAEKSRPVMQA
UniProt P21291, sequence (P21291 whole entry): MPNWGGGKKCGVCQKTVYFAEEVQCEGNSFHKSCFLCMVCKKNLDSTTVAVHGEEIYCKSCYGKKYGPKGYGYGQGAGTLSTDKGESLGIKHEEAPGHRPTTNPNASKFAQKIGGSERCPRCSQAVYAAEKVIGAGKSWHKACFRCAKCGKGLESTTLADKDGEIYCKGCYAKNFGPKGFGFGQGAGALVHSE

Target	thermal stability z-score (potassium arsenate)	thermal stability z-score (lipoamide; [1])	thermal stability z-score (lipoamide; arsenate co-treatment: none)
PITX1 (UniProt P78337)	0.027	0.0195	-0.0855
DGCR14 (UniProt Q96DF8)	0.724	-0.552	0.06
CSRP1 (UniProt P21291)	0.517	0.858	0.655
DDB2 (UniProt Q92466)	0.0883	-0.684	-1.2
ZC3H8 (UniProt Q8N5P1)	-0.576	-0.0194	-0.277
DAZAP1 (UniProt Q96EP5)	0.243	1.15	1.07
PLA2G12A (UniProt Q9BZM1)	-0.111	-0.0117	-0.134
RPS10 (UniProt P46783)	-0.422	0.895	0.406
NOSIP (UniProt Q9Y314)	2.36	-1.04	-0.0974
RMND1 (UniProt Q9NWS8)	0.244	0.392	0.519
SCAMP3 (UniProt O14828)	-0.277	0.525	0.319
NDUFB5 (UniProt O43674)	0.226	-0.958	-0.151
PSMD13 (UniProt Q9UNM6)	-0.0407	-0.244	0.13
CSPG4 (UniProt Q6UVK1)	-0.945	-0.203	-0.907
CRAT (UniProt P43155)	0.0734	0.0164	0.114
SEC31A (UniProt O94979)	0.497	0.00351	-0.104
TNRC6B (UniProt Q9UPQ9)	-0.306	-0.194	-0.00843
CSK (UniProt P41240)	-0.218	0.116	0.433
STAG2 (UniProt Q8N3U4)	-0.0489	0.281	0.393
PA2G4 (UniProt Q9UQ80)	1.4	0.127	0.183
FNDC3A (UniProt Q9Y2H6)	0.846	-0.542	0.324
U2AF1L5|U2AF1	-1.4	-0.511	-0.0589
RPL14 (UniProt P50914)	-1.08	0.565	0.492
SESTD1 (UniProt Q86VW0)	0.352	0.202	0.128

Target	thermal stability z-score (potassium arsenate)	thermal stability z-score (lipoamide; [1])	thermal stability z-score (lipoamide; arsenate co-treatment: none)
APOOL (UniProt Q6UXV4)	0.748	0.908	0.782
PNO1 (UniProt Q9NRX1)	-0.698	0.465	0.362
FAH (UniProt P16930)	-0.623	0.241	-0.125
AIFM1 (UniProt O95831)	0.186	-0.464	-0.558
C20ORF24 (UniProt Q9BUV8)	-0.477	0.799	0.361
RETSAT (UniProt Q6NUM9)	-0.259	0.0873	0.172
MAD2L2 (UniProt Q9UI95)	-0.211	-0.137	0.037
ADPGK (UniProt Q9BRR6)	-0.315	-1.02	-0.44
FYCO1 (UniProt Q9BQS8)	-0.152	-0.321	-0.354
TSPYL1 (UniProt Q9H0U9)	0.0344	-0.00828	-0.153
VRK2 (UniProt Q86Y07)	-0.6	-0.383	-0.335
PNN (UniProt Q9H307)	-0.467	1.03	0.507
FSTL3 (UniProt O95633)	0.0815	-3.19	-2.34
STAT1 (UniProt P42224)	0.502	-0.65	-0.206
PPP1R2 (UniProt P41236)	0.183	0.658	0.619
RPS16 (UniProt P62249)	-0.329	1.04	0.549
PRKDC (UniProt P78527)	-0.559	0.373	0.169
RASSF1 (UniProt Q9NS23)	-0.089	-0.0475	0.04
SPECC1 (UniProt Q5M775)	1.48	0.0376	0.504
AKR1A1 (UniProt P14550)	-0.0811	0.441	-0.302
BEGAIN (UniProt Q9BUH8)	0.144	-0.0429	-0.117
ATG5 (UniProt Q9H1Y0)	-0.959	-0.255	-0.342
RFC4 (UniProt P35249)	0.802	-0.184	-0.331
ERMP1 (UniProt Q7Z2K6)	0.227	0.0556	-0.119

Target	thermal stability z-score (potassium arsenate)	thermal stability z-score (lipoamide; [1])	thermal stability z-score (lipoamide; arsenate co-treatment: none)
UBE2B (UniProt P63146)	-0.132	0.48	-0.354
MLKL (UniProt Q8NB16)	-1.45	0.561	0.379
LNPEP (UniProt Q9UIQ6)	0.249	0.328	0.227
ADGRG2 (UniProt Q8IZP9)	-0.592	-0.0216	0.386
VBP1 (UniProt P61758)	-0.72	-0.615	-0.366
HDAC7 (UniProt Q8WUI4)	-0.534	0.158	-0.253
CPA4 (UniProt Q9UI42)	0.188	-0.883	-0.642
PPIL3 (UniProt Q9H2H8)	-0.32	-0.0679	0.0318
LRRC40 (UniProt Q9H9A6)	0.245	-0.119	0.108
BIRC5 (UniProt O15392)	0.136	0.166	0.186
LMF2 (UniProt Q9BU23)	0.316	-0.972	-0.61
RANBP1 (UniProt P43487)	0.475	-0.127	0.319
SLC25A4 (UniProt P12235)	0.373	-0.0513	0.0728
CCDC90B (UniProt Q9GZT6)	0.136	0.364	0.229
HSPA5 (UniProt P11021)	0.434	-2.56	-1.9
FAS (UniProt P25445)	0.539	0.392	0.673
SIAE (UniProt Q9HAT2)	0.741	0.527	0.537
UBA1 (UniProt P22314)	-0.439	-0.526	0.213
FBXO3 (UniProt Q9UK99)	-1.06	-0.185	-0.251
NT5DC2 (UniProt Q9H857)	0.13	0.0403	-0.251
JADE3 (UniProt Q92613)	-0.474	-0.12	0.143
LMO4 (UniProt P61968)	0.164	0.548	0.0182
RSL24D1 (UniProt Q9UHA3)	-3.91	1.21	0.133
